Data on three molecules can be found in patent publication US20040176289A1, “Pharmaceutical composition for prevention and treatment of joint arthritis and a screening method thereof” (priority 2001, published 2004).

Series [1] concerns ERK. As to the kind of experiment: ERK activity in SNP treated chondrocytes. It counts as cell-based. The source says: (§1) In order to investigate the effect of ERK activity on the de-differentiation of chondrocytes induced by NO production, the change of ERK activity in SNP treated chondrocytes was detected. […] In order to increase the ERK activity by SNP, at least 0. […] The ERK activity inhibitor also restrained the inhibition of type-II collagen expression by SNP (FIG. 8C), and it blocked the decrease of proteoglycan synthesis induced by SNP (FIG. 8D).
(§2) For the activation of ERK, phosphorylation by MEK, the upstream signal transduction molecule of ERK, is required.

The subject of series [2] is limb bud mesenchymal cells of chicken embryo. As to the kind of experiment: Differentiation of mesenchymal cells to chondrocytes (alcian blue staining, type-II collagen Western blot). The format is cell-based. On the procedure: (§3) The present inventors have observed the differentiation process of chondrocytes using limb bud mesenchymal cells of Hamburger-Hamilton stage 24-25 chicken embryo under micromass culture (FIG. 1A). Particularly, mesenchymal cells were suspended in Ham's F-12 medium (Gibco BRL, Gaithersburg, Md., USA) supplemented with 10% fetal bovine serum (2×10^7 cells/ ml). The cell suspension was loaded onto culture dish (15 μl/spot) and cultured at 37° C. for two hours in order to fix the cells on the dish. The cells were further cultured in the Ham's F-12 medium containing 10% FBS, 50 μg/ml streptomycin, and 50 units/ml penicillin.
As a result, when mesenchymal cells were micromass cultured for five days, the synthesis of type-II collagen, a characteristic of chondrocytes, began to take place from the third day of culturing, which was confirmed by Western blotting using an antibody implying that the differentiation of chondrocytes was progressed. The accumulation of sulfated proteoglycan was also confirmed through alcian blue staining to be increased, which also implied that the differentiation of chondrocytes began from the third day of culturing and completed on the fifth day (FIG. 2A).
The present inventors have confirmed the effect of ERK activity inhibition on the differentiation of chondrocytes. […]

Another series deals with P0 and P2 chondrocytes. Kind of series: Immunostaining of type-II collagen in P0 and P2 chondrocytes. The following applies: 20 μM, two days, immunofluorescence. It counts as cell-based, rabbit. On the procedure:
In order to examine the suppression of de-differentiation by the inhibition of ERK activity, the expression of collagen was observed by immunostaining. Particularly, 20 μM of ERK activity inhibitor 2-(2-amino-3-methoxyphenol)-4H-1-benzopyran-4-one (PD98059) was added into P0 and P2 chondrocytes, and the cells were then cultured for two days. The cultured cells were fixed with 3% parpformaldehyde for ten minutes and some parts of the cell membranes were disrupted by 0.2% X-100. Next, anti-type II collagen antibody (10 μg/ml) was added thereto and continued to culture thereof for one hour.

Series [3] has as its system ERK. As to the kind of experiment: ERK activity (Western blot, phosphorylated ERK-specific antibody) in micromass-cultured mesenchymal cells. The following applies: mesenchymal cells treated with PD98059, micromass culture. It counts as cell-based, chicken. On the procedure: as §3
The present inventors have confirmed the effect of ERK activity inhibition on the differentiation of chondrocytes. Particularly, the present inventors have investigated how the differentiation was influenced by the change and the inhibition of ERK activity during the differentiation process of chondrocytes induced by micromass culture of mesenchimal cells (FIG. 2A and Example 1-1). […] Therefore, it was confirmed that the decrease of ERK activity was required for the differentiation from mesenchimal cells to chondrocytes; that is, the differentiation of chondrocytes was stimulated by the inhibition of ERK activity.
as §2
(In general: A western blot detects proteins with antibodies after separation by electrophoresis.)

For another series, the system named is SPF SD line rats. As to the kind of experiment: Acute toxicity test in rat via non-oral administration. It counts as in vivo. On the procedure: Six-week old SPF SD line rats were used in the tests for acute toxicity. 2-(2-amino-3-methoxyphenol)-4H-1-benzopyran-4-one (PD98059) of the present invention was suspended in 0.5% methyl cellulose solution and intravenous injected once into two rats per group at dosages of 50, 30, and 10 mg/kg/15 ml. Death, clinical symptoms, and weight change in the rats were observed, hematological tests and biochemical tests of blood were performed, and abnormal signs in the gastrointestinal organs of chest and abdomen were observed visually during autopsy.

Series [4] deals with chondrocytes. As to the kind of experiment: NO (SNP) induced de-differentiation of chondrocytes (type-II collagen, proteoglycan). The format is cell-based.
Excerpt: as §1

A further series concerns COX-2. As to the kind of experiment: COX-2 expression in IL-1β treated chondrocytes (Western blotting). It counts as cell-based. On the procedure: The present inventors have further investigated the relation between the inhibition of ERK activity and the expression of COX-2. Particularly, the inventors have confirmed with Western blotting the quantity of cox-2 protein expressed in chondrocytes after treating the cells with different concentrations of IL-1β for 24 hours.

Series [5] deals with ERK. Kind of series: ERK activity in serially monolayer-cultured articular chondrocytes. It counts as cell-based, rabbit. The following applies: 20 μM, chondrocytes of each passage, two additional days. From the text: In order to confirm the de-differentiation and degeneration of chondrocytes, the present inventors have performed consecutively monolayer culture with articular chondrocytes of a two- to four-week-old rabbit (FIG. 1B). Particularly, articular cartilage of the rabbit was thin-sectioned aseptically, and the articular fragments were then reacted in PBS containing 0.2% collagenase type-II (Sigma) for six hours. Through quick-centrifugation, single cells were obtained. The single cells were suspended in DMEM (Dulbecco 's modified Eagle's medium, Gibco BRL, Gaithersburg, Md., USA) containing 10% FBS, 50 μg/ml streptomycin, and 50 units/ml penicillin and were plated onto a culture-dish at a density of 5×10^4 cells/cm^2 and cultured at 37° C. The medium was changed every other day. Five days later, the culture dish was filled with grown-up cells, which were identified as P0. Those cells were subcultured at the concentration of 5×10^4 cells/cm^2 per culture dish. […]
In order to ascertain the effect of ERK activity on the de-differentiation of chondrocytes, rabbit articular cartilage cells were cultured at the density of 5×10^4 cells/cm^2 on a culture dish. […] The expression of type-II collagen was analyzed by Western and Northern blotting, resulting in the highest expression in, P0, beginning to decrease in P1 and almost no expression after P3 (FIG. 4A). […]

For series [6], the system named is chondrocytes. As to the kind of experiment: IL-1β induced NO production in chondrocytes (nitrite). The format is cell-based. On the procedure:
Particularly, the amount of NO was determined by measuring the concentration of nitrite, a reaction product of NO, secreted after treating chondrocytes with IL1-β for 24 hours.

A further series deals with MMP-9. As to the kind of experiment: MMP-9 activity/expression by gelatin zymography in IL-1β treated articular cartilage cells. The format is cell-based. On the procedure: Particularly, articular cartilage cells were treated with 10 ng/ml of IL-1β according to the different times (0 minutes, ten minutes, thirty minutes, one hour, two hours, four hours, six hours, twelve hours, and 24 hours) and concentrations (0 ng/ml, 0.01 ng/ml , 0.1 ng/ml, 1 ng/ml, and 10 ng/ml), and culture supernatant was then obtained, followed by electrophoresis on the gel containing 2% gelatin. The separated gel was cultured at 37° C. for twelve hours, by which the decomposition of gelatin was induced by MMP-9. The remaining gelatin was stained for the confirmation of gelatin decomposition by MMP, based on which the MMP-9 activity was measured.

The subject of series [7] is rabbit articular chondrocytes. As to the kind of experiment: De-differentiation of articular chondrocytes in serial monolayer culture (type-II collagen, proteoglycan synthesis). It counts as cell-based. The following applies: two days; for expression of type-II collagen: 20 μM. The source says:
In order to confirm the de-differentiation and degeneration of chondrocytes, the present inventors have performed consecutively monolayer culture with articular chondrocytes of a two- to four-week-old rabbit (FIG. 1B). Particularly, articular cartilage of the rabbit was thin-sectioned aseptically, and the articular fragments were then reacted in PBS containing 0.2% collagenase type-II (Sigma) for six hours. Through quick-centrifugation, single cells were obtained. The single cells were suspended in DMEM (Dulbecco 's modified Eagle's medium, Gibco BRL, Gaithersburg, Md., USA) containing 10% FBS, 50 μg/ml streptomycin, and 50 units/ml penicillin and were plated onto a culture-dish at a density of 5×10^4 cells/cm^2 and cultured at 37° C. The medium was changed every other day. Five days later, the culture dish was filled with grown-up cells, which were identified as P0. Those cells were subcultured at the concentration of 5×10^4 cells/cm^2 per culture dish. The cells were continuously subcultured whenever they were fully grown to fill the dishes and were identified as P1 and next P2. Subculture was finished when P6 phase was completed. […] It was also confirmed by alcian blue staining that the accumulation of glycosaminoglycan sulfide was decreased as the subculture was continued. The de-differentiation and degeneration of chondrocytes were also disclosed by observing the shape of chondrocytes, which was changed from their distinguished round shape to fibroblast shape, a characteristic of degenerated chondrocytes (FIG. 2B).
In order to ascertain the effect of ERK activity on the de-differentiation of chondrocytes, rabbit articular cartilage cells were cultured at the density of 5×10^4 cells/cm^2 on a culture dish. The cells began to proliferate on the second day of culture and reached saturation on the fifth day. The cells in saturation point were designated as P0. The cells in P0 stage had typical round or polygonal shapes, but these forms changed into flat and fibroblast-like shapes while the cells were going through P6 stage by serial monolayer culture (FIG. 2B). The expression of type-II collagen was analyzed by Western and Northern blotting, resulting in the highest expression in, P0, beginning to decrease in P1 and almost no expression after P3 (FIG. 4A). […] Therefore, it was confirmed that the ERK activity was in inverse proportion to the expression of type-II collagen, which means the ERK activity plays an important role in the de-differentiation process.
To determine the relations between ERK activity and de-differentiation, the cells under subculturing were treated with 2-(2-amino-3-methoxyphenol)-4H-1-benzopyran-4-one (PD98059), an ERK activity inhibitor, and the synthesis of collagen and proteoglycan was observed. […]

In series [8] the test system is chondrocytes. As to the kind of experiment: NO production in chondrocytes treated with SNP. It counts as cell-based. From the text: In order to investigate the effect of NO produced in chondrocytes on the de-differentiation of chondrocytes, the present inventors treated the cells with […] (SNP), a NO donor, to induce No production.

Series [9] concerns ERK. Kind of series: ERK activity in IL-1β treated chondrocytes. The format is cell-based. The following applies: chondrocytes treated with IL-1β.
Where [10] appears, read: single intravenous injection, 50, 30 and 10 mg/kg/15 ml.

“Also recorded” adds a separate entry of the source.

As to `COc1cccc(-c2cc(=O)c3ccccc3o2)c1N` [PD98059, 2-(2-amino-3-methoxyphenol)-4H-1-benzopyran-4-one], the ERK activity result in the series with ERK [1] (20 μM PD98059, SNP treated chondrocytes) is recorded as “totally restrained”; in the series on ERK [5] it was “suppressed”. In addition, the “synthesis of proteoglycan (alcian blue staining)” value in series [2] (mesenchymal cells treated with PD98059) is recorded as “remarkably increased; also recorded: largely increased”. Besides, the “expression of type-II collagen” value in series [2] (mesenchymal cells treated with PD98059, Western blot) is “also increased”; in series [7] (P0 cells), “largely increased”; in [7] (P2 cells), “turned to express again”. Also, the “numbers of type-II collagen expressed cells” value is on record as “remarkably increased” in the series with P0 and P2 chondrocytes (P0 cells); “greatly increased” in the series with P0 and P2 chondrocytes (P2 cells). The “activity of ERK” value in the series with ERK [3] was “decreased in a dose-dependent manner”. The “level not causing any toxic change” value with SPF SD line rats (single intravenous injection) is at most 50 mg/kg. For the same molecule, the “clinical symptoms, weight change, death” value with SPF SD line rats (setting [10]) is on record as “did not cause any specific clinical symptoms, weight change, or death”. In addition, the “hematological tests, biochemical tests of blood, autopsy” value in the series on SPF SD line rats (setting [10]) was “No change was observed”. Further, the “decrease of proteoglycan synthesis induced by SNP” value in the series with chondrocytes [4] (PD98059 with SNP) is listed as “blocked”. For the same molecule, the “inhibition of type-II collagen expression by SNP” value in the series on chondrocytes [4] (PD98059 with SNP) was “restrained”. Also, the “expression of cox-2” value in the series with COX-2 (5 μM PD98059, IL-1β for 24 hours) is “completely suppressed”. In the series on chondrocytes [6] (5 μM PD98059, IL-1β for 24 hours, nitrite), the “NO production caused by IL-1β” value is on record as “completely inhibited”. In addition, the “expression of MMP-9” value in the series on MMP-9 (10 μM PD98059, IL-1β treated chondrocytes) is “suppressed”. In addition, the “increase of synthesis of proteoglycan by a factor (alcian blue staining)” value in [7] (P0, 20 μM) worked out at 2.6; in [7] (P2, 20 μM), 6.4.

Consider `CC(=O)N[C@H](C(=O)O)C(C)(C)SN=O` [SNP, S-nitroso-N-acetyl penicillamine], for which, in the series with ERK [1] (1 mM SNP), the “ERK activity, time course” value was “began to increase three hours after the treatment and reached the highest activity twelve hours later”. Also, the “SNP concentration required to increase the ERK activity” value with ERK [1] (chondrocytes) was “at least 0. 5 mM”. For the same molecule, the “expression of type-II collagen” value is on record as “started to decrease” in the series on chondrocytes [4] (0.1 mM SNP, 24 hours); “began to decrease” in the series on chondrocytes [4] (1 mM SNP, 12 hours); “totally suppressed” in the series with chondrocytes [4] (1 mM SNP, 24 hours). Further, the synthesis of proteoglycan entry in the series on chondrocytes [4] (SNP treated chondrocytes) is on record as “decreased depending on the concentration”. Moreover, the NO production result in the series with chondrocytes [8] was “in proportion to the concentration”.

On to IL-1β: an inflammatory cytokine, for which the “expression of cox-2” value in the series on COX-2 (different concentrations of IL-1β, 24 hours) was “increased depending on the concentration”. In addition, the NO production entry in the series on chondrocytes [6] (chondrocytes treated with IL-1β) is given as “stimulates NO production in a dose-dependent manner”. Also, in the series on ERK [9], the ERK activity entry was “temporarily increased at the early stage”. For the same molecule, the “expression of MMP-9” value in the series with MMP-9 (IL-1β 0-10 ng/ml, gelatin zymography) is listed as “largely increased depending on the concentration”.
